Measured values taken from US20190374554A1, “USE OF OXYGENATED CHOLESTEROL SULFATES (OCS) TO TREAT INFLAMMATORY SKIN DISEASE AND SKIN LESIONS” (Virginia Commonwealth University, priority 2016, published 2019).

Experiments:
[1] = Drug solubility / drug loading in solvents and compositions; format: physicochemical
psoriasis plaques = assay: Proof of concept study of single intralesional doses in psoriasis patients, microplaque assay (LPSI); format: in vivo, human; details: single intralesional dose (3 injections of 100 μL); 14 day scoring period
From the text: The objectives of this study were: • To establish preliminary evidence for the efficacy of intralesionally injected 25HC3S in patients with psoriasis, as assessed by microplaque assay. • To assess the safety of 25HC3S in patients with psoriasis. • Compare evidence for the efficacy of different formulations of intralesionally injected 25HC3S.
• This trial was a double-blind, within-participant, randomized, vehicle and active comparator-controlled, single-dose study. Participants attended a screening visit within 28 days of dosing. A target plaque(s) of psoriasis was selected. • Day 0: each participant was treated with 2 different formulations of study drug, 2 vehicle formulations, one active comparator and one untreated area (6 treatments in total). Each treatment was administered to every participant as an intralesional injection, with the exception of the untreated area. • Participants were required to return for outpatient visits for microplaque assessments at Day 1, Day 2, Day 7 and Day 14. Treatment Formulations: Table 12 lists the formulated drug products and Table 13 lists the amounts injected.
Ten patients with mild to severe psoriasis were enrolled into this clinical trial after screening. […]
The effect of 25HC3S in psoriasis was assessed by the change of LPSI score as compared to vehicle or untreated in this microplaque assay. […]

Hannover Wistar rats = assay: Acute single dose intramuscular (IM) injection study in rats; format: in vivo; details: minimal to moderate, drug-treated vs vehicle
Experimental: For the acute single dose study, Hannover Wistar rats (n=5/sex/dose group) received a single IM injection followed by 2 and 14 day observation periods. The solution that was tested included 30 mg/mL of 25HC3S sodium salt in vehicle (250 mg/mL hydroxypropyl-β-cyclodextrin in 10 mM sodium phosphate buffer in sterile water). Dose levels of 0 (vehicle), 3, 10 and 30 mg/kg of 25HC3S sodium salt were administered in dose volumes of 1.0, 0.1, 0.3 and 1.0 mL/kg. […] The changes were less severe (minimal only) after 14 days, indicating partial recovery; no clear effect of the presence of 25HC3S or vehicle volume was observed.

[2] = test system: IMQ-induced psoriasis-like back skin and ear lesions; assay: Imiquimod (IMQ)-induced psoriasis mouse model, skin scoring (erythema, scaling, thickness); format: in vivo, Balb/C mice; details: mice; intradermal injection into back lesion Days 1 and 4; vs vehicle (FIG. 2)
Experimental: The subjects for the study were 40 male Balb/C mice (18-22 g). […] The backs of all mice were shaved for an area of 1.5 cm×2 cm.
Formulation A was a clear solution of 25 HC3S sodium salt (30 mg/mL) in a solution vehicle (250 mg/mL hydroxypropyl betadex (beta cyclodextrin, 2-hydroxypropyl ether, a partially substituted poly(hydroxypropyl) ether of beta cyclodextrin) and 10 mM sodium phosphate buffer in sterile water). Vehicle was stored at 2-8° C. storage and placed at room temperature for 30 min. prior to mixing with powdered 25HC3S just prior to use. Dissolution of the 25HC3S in Vehicle A was rapid and appeared to be complete upon mixing.
Formulation B was a milky suspension of 25HC3S sodium salt (25 mg/mL) in a suspension vehicle (30 mg/mL polyethylene glycol 3350, 3 mg/mL polysorbate 80, 7.5 mg/mL NaCl, and 10 mM sodium phosphate buffer in sterile water). The 25HC3S was milled using a Fluid Energy Model 00 Jet-O-Mizer™ to approximately a 5 microns average particle size (measured by a Malvern Mastersizer 2000 equipped with a hydro 2000S dispersion cell) prior to addition to the vehicle. […]
Mice were monitored for signs of distress and daily photos of the back lesions were taken. Erythema, scaling, and thickness of the back skin was scored daily on a scale from 0 to 4 by an independent scorer (blind), where 0=none; 1=slight; 2=moderate; 3=marked; and 4=very marked. […]

With C[C@H](CCCC(C)(C)O)[C@H]1CC[C@H]2[C@@H]3CC=C4C[C@@H](OS(=O)(=O)[O-])CC[C@]4(C)[C@H]3CC[C@]12C.[Na+] [Formulation 25HC3S, 5-cholesten-3, 25-diol, 3-sulfate] the “state of drug in the prepared compositions” value ([1]; 6 wt % 25HC3S, compositions of Tables 31 and 32) was “all in solution”, the “maximum drug loading achieved” value ([1]; Carbopol based creams or gels) was 1 wt % and the drug solubility ([1]; in EtOH) was ~3 mg/mL. For the same compound, the drug solubility ([1]; in PEG 400) was ~130 mg/mL, the drug solubility ([1]; in PG) was ~30 mg/mL and the “effect on psoriatic plaques based on LPSI score” value (psoriasis plaques) was “exhibited efficacy in psoriatic plaques by reducing LPSI”. For the same compound, the “muscle degeneration/regeneration, hemorrhage and inflammation in injected muscles” value (Hannover Wistar rats) was “incidence and severity similar in vehicle and drug-treated rats” and the “erythema (redness) of the back skin” value [2] was “promotes reduction in erythema”.
